Values quoted from earlier work, collected in PMC4468036 (Bioorganic & medicinal chemistry, 2014).

What was measured:
μ receptor = conditions: read-out: IC50 at μ receptor; selectivity of ML140
δ receptor = conditions: read-out: IC50 at δ receptor; selectivity of ML140

IC50 (μ receptor): > 24 µM
IC50 (δ receptor): > 32 µM
SMILES: Cc1ccc(S(=O)(=O)NCc2ccc(C(=O)NCCN(Cc3ccccc3)C(C)C)cc2)cc1 [ML140]
